The text below walks through data of patent US20220008542A1, “ANTI-PROTOZOAL COMPOUNDS AND USES THEREOF” (AUBURN UNIVERSITY, priority 2017, published 2022).

Molecules are shown by their SMILES. Like-named read-outs stand apart in the source and are kept apart here.

Assay [1] has as its system T. foetus trophozoites. In words: Example 3: T. foetus trophozoites in tissue culture wells, 5 passages (120 hours), re-emergence of organisms. The assay is classed as cell-based, Tritrichomonas foetus. As to conditions: for subsequent cultures: over a 5 day period. The method, then:
(§1) Experiments were performed in vitro using pure cultures of T. foetus trophozoites with the addition of i) an antiprotozoal compound alone or ii) a veterinary formulation comprising an antiprotozoal compound and a polymer. Samples were evaluated at predetermined time points using Neubauer hemocytometers (C-Chip® NanoEnTek Inc., Pleasanton, Calif.) to determine the number of viable organisms and the induction of the pseudocyst form. Cultures were tested for reversibility to the motile trophozoite form or replication of organisms.
(§2) The CDTf3 cloned strain of T. foetus was utilized for the instant examples. The parasites were cultivated in trypticase-yeast extract-maltose (TYM) Diamond's medium (DM) and supplemented with 10% heat-inactivated fetal bovine serum (Atlanta Biologics, Norcross, Ga.) at 37° C. for 24-48 hours until adequate numbers of trichomonads were present to perform the required number of replications. Following culture, T. foetus organisms were washed and re-suspended in 1 mL of sterile phosphate buffered saline (PBS) and then inoculated into 15 mL conical tubes (BD Falcon, Franklin Lakes, N.J.) or tissue culture wells (Sarstedt, Inc., Newton, N.C.) containing DM.
Trophozoites (5×10^4 mL^−1) were cultured as described above and added to all tissue culture wells along with 3 mL of DM for a total volume of 4 mL of DM with 50,000 organisms per well. At time 0, each of the following treatment groups were added to tissue culture wells as follows: Group 1) positive control 4 mL DM; Group 2) negative control 4 mL 70% ethanol (EtOH); Group 3) 150 mg oxfendazole solution (OXF) (1 mL)+2 mL Velvachol (VC)+1 mL PLO; Group 4) 150 mg OXF (1 mL)+3 mL VC; Group 5) 150 mg OXF (1 mL)+3 mL EtOH; Group 6) 150 mg OXF (1 mL)+2 mL EtOH+1 mL PLO; Group 7) 1 mL EtOH+2 mL VC+1 mL PLO; Group 8) 1 mL EtOH+3 mL VC; Group 9) 3 mL EtOH+1 mL PLO; Group 10) 4 mL EtOH; Group 11) 4 mL VC; Group 12) 150 mg oxfendazole dissolved in 4 mL 99% DMSO; and Group 13) 4 mL 99% DMSO.
The OXF (U.S. Pharmacopeial Convention Rockville, Md.) stock solution was made in EtOH (Humco Texarkana, TX) and stored at 150 mg mL^−1, with the exception of Formulation 13 which included OXF dissolved in 99% DMSO (VedCo, Saint Joseph, Mo.). The combinations of PLO (Pluronic F127 Letco Medical, Decatur, Ala.), VC (Valeant North America LLC, Bridgewater, N.J.), EtOH (Humco Texarkana, TX), and OXF stock solution were mixed as described above.
Each treatment was applied to tissue culture wells in duplicate. Following culture as described in Example 2, samples were collected every 8 hours for a total of 24 hours and counted as previously described. At 24 hours post-treatment and following counting of organisms, each formulation was removed from the tissue culture well and centrifuged at 4000 g for 10 minutes. The supernatant was removed and placed in a labeled vial for evaluation of drug concentration at a later time. The pellet was re-suspended in 4 mL of DM and placed once again in a tissue culture well before being re-incubated at 37° C. This process was repeated every 24 hours for 5 passages (120 hours) to allow for re-emergence of any organisms. Assays were continued to be microscopically examined during this period for the presence of T. foetus organisms in culture by counting of live organisms.

Assay [2] relates to T. foetus trophozoites. In words: Example 1: T. foetus trophozoites in culture tubes, surviving organisms counted by hemocytometer, re-culture at 12 hours. The class given is cell-based, Tritrichomonas foetus. As to conditions: for inhibition of parasite growth: PO 75 mg mL^-1, OX 50 mg mL^-1, compound alone; for reduction in motile organisms: after 2 hours of culture, compound alone; for motile organisms after re-culture: re-culture at 12 hours, examination at 24 hours. On the procedure:
as §1, §2
Trophozoites (3.75×10^5 mL^−1) were washed in PBS (VWR, Radnor, Pa.) and inoculated into 10 mL of fresh DM. At time 0, each of the following treatment groups was added to culture tubes: Group 1) control: 0.5 mL DM; Group 2) 0.5 mL pluronic lecithin organogel (PLO; Pluronic F127); Group 3) 75 mg ponazuril (PO) (0.5 mL); Group 4) 50 mg oxibendazole (OX) (0.5 mL); Group 5) 37.5 mg PO (0.25 mL)+0.25 mL PLO; and Group 6) 25 mg OX (0.25 mL)+0.25 mL PLO.
PLO (Pluronic F127 Letco Medical, Decatur, Ala.) was combined with OX (Anthelcide EQ® Zoetis, Florham Park, N.J.) or PO (Marquis® Merial, Duluth, Ga.) paste formulations by shear force, syringe-to-syringe-blending using two luer-lock syringes and a rapid fill connector (Baxter, Inglewood, Calif.). Each treatment was applied to conical culture tubes in 5 replicates. Following growth at 37° C., samples were taken every 2 hours for a total of 12 hours, and the tubes were vortexed prior to removal of a 20 μL sample. From these samples, the surviving organisms were counted utilizing disposable Neubauer hemocytometers (C-Chip® NanoEnTek Inc., Pleasanton, Calif.). At 12 hours post-treatment, each formulation was recultured in fresh DM without antiprotozoal compound and evaluated microscopically daily for the presence of T. foetus organisms in culture. These assays were performed in order to evaluate if the effects exerted by the antiprotozoal compounds could be reversed.

Turning to `C[S+](C)[O-]` [DMSO], in assay [1], the “surviving organisms / form seen, 8 hours post-incubation” value is on record as “dead trophs”; the “surviving organisms / form seen, 16 hours post-incubation” value is given as “dead trophs”; the “surviving organisms / form seen, 24 hours post-incubation” value was “dead trophs”; the “surviving organisms / form seen, 48 hours post-incubation” value is on record as “dead trophs”. Moreover, in assay [1], the “surviving organisms / form seen, 72 hours post-incubation” value was “dead trophs”; the “surviving organisms / form seen, 96 hours post-incubation” value is on record as “no cells”; the “surviving organisms / form seen, 120 hours post-incubation” value is listed as “no cells”; the subsequent cultures result is given as “negative cultures”. Besides, in assay [1] (listed as 99% DMSO), the death of trophozoites entry is “capable of inducing death of trophozoites”.

As for `CCO` [EtOH, ethanol], in assay [1], the death of trophozoites entry is “capable of inducing death of trophozoites”; the “surviving organisms / form seen, 8 hours post-incubation” value is given as “dead trophs”; the “surviving organisms / form seen, 16 hours post-incubation” value was “dead trophs”; the “surviving organisms / form seen, 24 hours post-incubation” value is listed as “dead trophs”. For the same compound, in assay [1], the “surviving organisms / form seen, 48 hours post-incubation” value is given as “dead trophs”; the “surviving organisms / form seen, 72 hours post-incubation” value is given as “dead trophs”; the “surviving organisms / form seen, 96 hours post-incubation” value is recorded as “no cells”; the “surviving organisms / form seen, 120 hours post-incubation” value is recorded as “no cells”. Moreover, the subsequent cultures result in assay [1] was “negative cultures”.

On to `CCCOc1ccc2nc(NC(=O)OC)[nH]c2c1` [OX, methyl (5-propoxy-1H-benzimidazol-2-yl)carbamate], for which, in assay [2], the “inhibition of parasite growth” value was “significantly inhibited parasite growth”, the “reduction in motile organisms” value was determined as 98% and the “motile organisms after re-culture” value was “reestablishment of motile organisms was observed”.

For `Cc1cc(-n2c(=O)[nH]c(=O)n(C)c2=O)ccc1Oc1ccc(S(=O)(=O)C(F)(F)F)cc1` [PO, 1-Methyl-3-(3-methyl-4-(4-((trifluoromethyl)sulfonyl)phenoxy)phenyl)-1,3,5-triazinane-2,4,6-trione], in assay [2], the “inhibition of parasite growth” value is recorded as “significantly inhibited parasite growth”, the “reduction in motile organisms” value stood at 98% and the “motile organisms after re-culture” value is reported as “reestablishment of motile organisms was observed”.
